Measured values reported in patent US20220411362A1, “DITERPENOID COMPOUNDS THAT ACT ON PROTEIN KINASE C (PKC)” (K-Gen, Inc., priority 2019, published 2022).
Read-outs that look alike come from different tables or passages of the source.

Experiments:
C1b domain of human PKCδ = molecular target: T1, C1b domain of human PKCδ (Homo sapiens, UniProt Q05655); assay: Competitive 3H-PDBu binding to C1b domain of PKCδ; conditions: Ki PKCδ, 3H-PDBu competition
T1 construct: Genes encoding C1b domains of human PKCα, δ, ε, θ, and PKD1 (PKCμ) were synthesized; made in house; host or cells: E. coli BL21(DE3)
Description: (§1) Compounds described in this disclosure were tested for binding affinity to C1b domain of PKC isoforms. Compound binding affinity to C1b domain of PKC isoforms was derived from competitive binding assay using radioactive tracer ^3H-PDBu and recombinant GST-C1b or full-length of human PKC proteins based on modified procedures from Methods in Molecular Biology, vol.
(§2) Genes encoding C1b domains of human PKCα, δ, ε, θ, and PKD1 (PKCμ) were synthesized and inserted into pGEX-2TK or pGEX-4T1 vectors for expression and production of GST-C1b proteins in E. coli BL21(DE3) via IPTG induction. The target proteins were purified by glutathione sepharose 4B and followed by ion exchange chromatography if needed to achieve purity >70%. Aliquots of the purified proteins were stored at −80 degree for binding assay (storage buffer: 20 mM Tris pH 8.0, 200 mM NaCl, 10% glycerol, 1 mM DTT).
(§3) The plate was incubated at 37° C. on a shaker at 300 rpm for 10 minutes and then put on ice for 20 minutes. […] The bottom of the filter plate was sealed and 50 μL of MicroScint-20 (PerkinElmer) cocktail was added to each well. ^3H-PDBu trapped in each well was counted using PerkinElmer MicroBeta2 Reader. Data were analyzed using GraphPad Prism5 with the model “log(inhibitor) vs. response-variable slope” to fit the IC50, and then IC50 was transformed to Ki using Cheng-Prusoff equation: Ki=IC50/(1+added radio ligand/Kd). Kd is the binding affinity of each protein preparation to ^3H-PDBu, determined experimentally.

C1b domain of human PKCα = molecular target: T2, C1b domain of human PKCα (Homo sapiens, UniProt P17252); assay: biochemical; format: binding; conditions: Ki PKCα, 3H-PDBu competition
T2 construct: Genes encoding C1b domains of human PKCα, δ, ε, θ, and PKD1 (PKCμ) were synthesized; made in house; host or cells: E. coli BL21(DE3)
Description: as §1, §2
The plate was incubated at 37° C. on a shaker at 300 rpm for 10 minutes and then put on ice for 20 minutes. […] The bottom of the filter plate was sealed and 50 μL of MicroScint-20 (PerkinElmer) cocktail was added to each well. ^3H-PDBu trapped in each well was counted using PerkinElmer MicroBeta2 Reader. […] Kd is the binding affinity of each protein preparation to ^3H-PDBu, determined experimentally.

[1] = molecular target: T3, C1b domain of human PKD1 (PKCμ) (Homo sapiens, UniProt Q15139); assay: biochemical; format: binding
T3 construct: Genes encoding C1b domains of human PKCα, δ, ε, θ, and PKD1 (PKCμ) were synthesized; made in house; host or cells: E. coli BL21(DE3)
T3 sequence (Q15139 270-320 limits assumed): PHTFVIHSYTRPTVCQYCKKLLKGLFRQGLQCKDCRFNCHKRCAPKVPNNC
Description: as §1, §2, §3

[2] = tested on: A549 non-small cell lung cancer cell line; assay: Proliferation of A549 (CellTiter Glo); format: cell-based; conditions: Homo sapiens, read-out: IC50 μM (A549 Cell Line)
Description: The diterpenoid compounds were tested in A549, a non-small cell lung cancer cell line harboring a K-Ras activating mutation. Briefly, A549 cells at a density of 1,000 cells/well were seeded in 96-well plates and incubated at 37° C. for 24 hours. A series of different concentrations of compound stocks (500×) were prepared by 3-fold serial dilution in DMSO. These compounds were further diluted in culture media and then added to cells so that the final DMSO concentration was not exceeding 0.25%. After 96 hours of incubation, 50 μL of CellTiter Glo reagent (Promega) was added to each well and luminescence was measured after 10 minutes using EnVision (PerkinElmer). Luminescence from cells treated with DMSO alone was set as Max and % of inhibition was calculated as follows: Inhibition %=(Max−Sample value)/Max×100. Data was analyzed using XL-fit software (ID Business Solutions Ltd.) and IC50, relative IC50, and % of top inhibition was calculated. Some of the compounds in this disclosure were very potent in blocking proliferation of A549 lung cancer cells at low nM range. In addition, potency of inhibiting A549 proliferation correlated well with its binding affinity to PKCs for this series of compounds. In other words, higher affinity binders had stronger inhibitory effects on A549 proliferation. This further support the notion that activation, rather than inhibition, of certain PKC isoforms is required to block proliferation of cancer cells, some of which may harbor K-Ras mutations. This is in sharp contrast to previous literature and common belief that inhibition of PKC is necessary to block cancer cell growth (Kang, 2014, New Journal of Science, 2014:1-36). Data presented here is in agreement with recent findings that many loss-of-function but not gain-of-function mutations of PKC isoforms have been identified in many human cancers (Antal et al., 2015, Cell, 160:489-502).

[3] = A549, 96 hours incubation, CellTiter Glo

T1 sequence (Q05655 230-280 limits assumed): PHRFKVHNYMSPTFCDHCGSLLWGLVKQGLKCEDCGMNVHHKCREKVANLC

Row | SMILES | Ki (C1b domain of human PKCδ) [nM] | Ki (C1b domain of human PKCα) [nM] | Ki [1] [nM] | IC50 ([2]; A549, 96 h) [µM] | IC50 [2, 3] [µM]
1 | CC1=C[C@H]2[C@@]3(O)[C@H](C)C[C@]4(OC(=O)[C@@H](N)CCc5ccccc5)[C@H]([C@@H]3C=C(CO)C[C@]2(O)C1=O)C4(C)C [Compound K101-C135602] | 1 to 30 | 200 to 400 |  |  | 
2 | CCCC[C@H](N)C(=O)O[C@@]12C[C@@H](C)[C@@]3(O)[C@@H](C=C(CO)C[C@]4(O)C(=O)C(C)=C[C@@H]34)[C@@H]1C2(C)C [Compound K101-C1317] | 1 to 30 | 800 to 1000 | < 5 | 0.6 to 1 | 
3 | CC1=C[C@H]2[C@@]3(O)[C@H](C)C[C@]4(OC(=O)C[C@H](N)c5ccccc5)[C@H]([C@@H]3C=C(CO)C[C@]2(O)C1=O)C4(C)C [Compound K101-C1343] | 30 to 60 | 1000 to 2000 | 1 to 30 | 1 to 2 | 
4 | CC1=C[C@H]2[C@@]3(O)[C@H](C)C[C@]4(OC(=O)[C@@H](N)CC5CCCC5)[C@H]([C@@H]3C=C(CO)C[C@]2(O)C1=O)C4(C)C [Compound K101-C1332] | 5 to 10 | 100 to 200 | 5 to 10 | 0.1 to 0.2 | 
5 | CC1=C[C@H]2[C@@]3(O)[C@H](C)C[C@]4(OC(=O)[C@H](N)CCc5ccc(C(F)(F)F)cc5)[C@H]([C@@H]3C=C(CO)C[C@]2(O)C1=O)C4(C)C [Compound K101-C135601] | 30 to 60 | 1000 to 2000 | 1 to 30 | 0.2 to 0.6 | 
6 | CC1=C[C@H]2[C@@]3(O)[C@H](C)C[C@]4(OC(=O)CCCCCCCCCCC(=O)O)[C@H]([C@@H]3C=C(CO)C[C@]2(O)C1=O)C4(C)C [Compound K101-C1334] | 400 to 800 | > 8000 | 30 to 60 | 10 to 30 | 
7 | CC1=C[C@H]2[C@@]3(O)[C@H](C)C[C@]4(OC(=O)C[C@@H](N)CCc5ccccc5)[C@H]([C@@H]3C=C(CO)C[C@]2(O)C1=O)C4(C)C [Compound K101-C1350] | 1 to 30 | 400 to 800 | < 5 | 0.6 to 1 | 
8 | CC1=C[C@H]2[C@@]3(O)[C@H](C)C[C@]4(OC(=O)[C@@H](N)C56CC(F)(C5)C6)[C@H]([C@@H]3C=C(CO)C[C@]2(O)C1=O)C4(C)C [Compound K101-C137302] |  |  |  |  | 10 to 30
9 | CC1=C[C@H]2[C@@]3(O)[C@H](C)C[C@]4(OC(=O)[C@H](N)CCCCCCc5ccccc5)[C@H]([C@@H]3C=C(COC(=O)[C@@H](N)C(C)C)C[C@]2(O)C1=O)C4(C)C [K101-C134801C2003] |  |  |  |  | 0.03 to 0.06
10 | CCCCCCCCCCCCCCCCCCC(CC(=O)O[C@@]12C[C@@H](C)[C@@]3(O)[C@@H](C=C(CO)C[C@]4(O)C(=O)C(C)=C[C@@H]34)[C@@H]1C2(C)C)C(=O)O (stereo partly shown) [Compound K101-C1352] | 200 to 400 | 4000 to 6000 | 200 to 400 | 5 to 10 | 
11 | CC1=C[C@H]2[C@@]3(O)[C@H](C)C[C@]4(OC(=O)[C@H](O)Cc5ccccc5)[C@H]([C@@H]3C=C(CO)C[C@]2(O)C1=O)C4(C)C [Compound K101-C1355] | 100 to 200 |  | 30 to 60 | 2 to 5 | 
12 | CC1=C[C@H]2[C@@]3(O)[C@H](C)C[C@]4(OC(=O)CCc5c[nH]c6ncccc56)[C@H]([C@@H]3C=C(CO)C[C@]2(O)C1=O)C4(C)C [Compound K101-C1322] | 30 to 60 | 800 to 1000 | 5 to 10 | 2 to 5 | 
13 | CC1=C[C@H]2[C@@]3(O)[C@H](C)C[C@]4(OC(=O)[C@@H](N)Cc5c[nH]c6ccccc56)[C@H]([C@@H]3C=C(CO)C[C@]2(O)C1=O)C4(C)C [Compound K101-C1340] | 1 to 30 | 200 to 400 | 5 to 10 | 10 to 30 | 
